Laboratory results reported in the NIST ThermoML archive (doi:10.1016/j.fluid.2006.10.012).
± gives the expanded uncertainty stated by the source.

Experiment: osmotic coefficient (dimensionless); mn = molality of the nth substance listed, in mol/kg
Settings: Liquid, isopiestic method

NCC(=O)O [2-aminoacetic acid] + O
Settings | osmotic coefficient
288.15 K, m1 = 0.2174 | 0.9554 ± 0.0022
288.15 K, m1 = 0.2178 | 0.9554 ± 0.0022
288.15 K, m1 = 0.3075 | 0.946 ± 0.0027
288.15 K, m1 = 0.3078 | 0.946 ± 0.0027
288.15 K, m1 = 0.5175 | 0.9341 ± 0.0033
288.15 K, m1 = 0.5178 | 0.934 ± 0.0033
288.15 K, m1 = 0.6241 | 0.9302 ± 0.0035
288.15 K, m1 = 0.6251 | 0.9302 ± 0.0035
288.15 K, m1 = 0.8647 | 0.9219 ± 0.0039
288.15 K, m1 = 0.8654 | 0.9219 ± 0.0039
288.15 K, m1 = 1.193 | 0.9166 ± 0.0042
288.15 K, m1 = 1.194 | 0.9166 ± 0.0042
293.15 K, m1 = 0.2074 | 0.9705 ± 0.0015
293.15 K, m1 = 0.2076 | 0.9705 ± 0.0015
293.15 K, m1 = 0.3572 | 0.9556 ± 0.0022
293.15 K, m1 = 0.3577 | 0.9555 ± 0.0022
293.15 K, m1 = 0.5277 | 0.9428 ± 0.0029
293.15 K, m1 = 0.5284 | 0.9428 ± 0.0029
293.15 K, m1 = 0.8498 | 0.9282 ± 0.0036
293.15 K, m1 = 0.8508 | 0.9282 ± 0.0036
293.15 K, m1 = 1.027 | 0.924 ± 0.0038
293.15 K, m1 = 1.028 | 0.924 ± 0.0038
293.15 K, m1 = 1.298 | 0.9202 ± 0.004
293.15 K, m1 = 1.299 | 0.9202 ± 0.004
298.15 K, m1 = 0.2274 | 0.9815 ± 0.0009
298.15 K, m1 = 0.2276 | 0.981 ± 0.001
298.15 K, m1 = 0.3213 | 0.9767 ± 0.0012
298.15 K, m1 = 0.3214 | 0.9764 ± 0.0012
298.15 K, m1 = 0.5417 | 0.9583 ± 0.0021
298.15 K, m1 = 0.7869 | 0.9461 ± 0.0027
298.15 K, m1 = 0.7878 | 0.945 ± 0.0028
298.15 K, m1 = 0.8048 | 0.9442 ± 0.0028
298.15 K, m1 = 0.8059 | 0.9432 ± 0.0028
298.15 K, m1 = 1.139 | 0.9297 ± 0.0035
298.15 K, m1 = 1.14 | 0.9295 ± 0.0035
303.15 K, m1 = 0.203 | 0.9873 ± 0.0006
303.15 K, m1 = 0.2037 | 0.9872 ± 0.0006
303.15 K, m1 = 0.3379 | 0.9781 ± 0.0011
303.15 K, m1 = 0.3388 | 0.9781 ± 0.0011
303.15 K, m1 = 0.5346 | 0.966 ± 0.0017
303.15 K, m1 = 0.535 | 0.9659 ± 0.0017
303.15 K, m1 = 0.7489 | 0.9539 ± 0.0023
303.15 K, m1 = 0.7501 | 0.9538 ± 0.0023
303.15 K, m1 = 0.854 | 0.9483 ± 0.0026
303.15 K, m1 = 0.8547 | 0.9483 ± 0.0026
303.15 K, m1 = 1.044 | 0.9384 ± 0.0031
303.15 K, m1 = 1.045 | 0.9384 ± 0.0031
